# Where “and” joins values, the source holds several entries; their conditions need not be identical. Identical values can stand only once. Calls of active or inactive are those of the source.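 How the source made its calls: active means IC50 of 25 µM or lower, counted as toxic to worms; inactive means the rest.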
# Test system: C. elegans VP596 worm health composite score, 20-22 h
# Experiment: nematode toxicity of SKN-1 inhibitor analogs – whole organism, strain VP596, composite health score, round 3, cytotoxicity control for SKN-1 inhibitor project, SAR follow-up (AID 743062)
row,Structure (SMILES),IC50
1,Clc1ccc(-c2csc(-c3ccncc3)n2)cc1Cl,10.5 µM and 33.7 µM (inactive)
2,Cc1sc(-c2ccncc2)nc1-c1ccccc1,48.3 µM (inactive)
3,Clc1ccc(-c2csc(C3CCNCC3)n2)cc1,> 64 µM (inactive)
4,Cc1csc(-c2ccncc2)n1,> 64 µM (inactive)
5,Clc1ccc(-c2csc(-c3ccncc3)n2)cc1,32.7 µM (inactive) and 11.5 µM
6,Fc1ccc(-c2csc(C3CCNCC3)n2)cc1,> 64 µM (inactive)
7,c1ccc(-c2csc(-c3cccnc3)n2)cc1,53.9 µM (inactive)
8,COc1ccc(-c2nc(-c3ccncc3)sc2C)cc1,> 64 µM (inactive)
9,CC(C)(C)c1csc(-c2ccncc2)n1,> 64 µM (inactive)
10,Cc1sc(-c2ccncc2)nc1-c1ccc(Cl)cc1,> 64 µM (inactive)
11,COc1ccc(-c2csc(C3CCNCC3)n2)cc1,> 64 µM (inactive)
12,Clc1ccc(-c2csc(-c3ccccn3)n2)cc1,23.1 µM and > 64 µM (inactive)
13,Clc1ccc(-c2csc(-c3ccncc3)n2)c(Cl)c1,> 64 µM (inactive)
14,N#Cc1ccc(-c2csc(-c3ccncc3)n2)cc1,37.2 µM (inactive)
15,COc1ccccc1-c1csc(-c2ccncc2)n1,48.4 µM (inactive)
16,FC(F)(F)c1ccc(-c2csc(-c3ccncc3)n2)cc1,20.3 µM
17,COc1ccc(-c2csc(-c3ccccn3)n2)cc1,21.4 µM
18,Cc1ccccc1-c1csc(-c2ccncc2)n1,55.7 µM (inactive)
19,Cc1ccc(-c2csc(-c3ccccc3)n2)cc1,> 64 µM (inactive)
20,Cc1ccc(-c2csc(-c3ccncc3)n2)cc1,54.6 µM (inactive)
21,c1cc(-c2nc(C3CC3)cs2)ccn1,> 64 µM (inactive)
22,c1ccc(-c2csc(-c3ccccn3)n2)cc1,> 64 µM (inactive)
23,Cc1ccc(-c2csc(-c3ccccn3)n2)cc1,> 64 µM (inactive)
24,Cc1cccc(-c2csc(-c3ccncc3)n2)c1,50.8 µM (inactive)

row,Structure (SMILES),IC50
1,Cc1ccc(-c2csc(-c3cccnc3)n2)cc1,> 64 µM (inactive)
2,c1ccc(-c2csc(-c3ccncc3)n2)cc1,42.4 µM (inactive)
3,COc1ccc(-c2csc(-c3cccnc3)n2)cc1,36.4 µM (inactive)
4,COc1ccc(-c2csc(-c3ccccc3)n2)cc1,> 64 µM (inactive)
5,COc1ccc(-c2csc(-c3ccncc3)n2)cc1,> 64 µM (inactive)
6,Cc1ccc(-c2nc(-c3ccncc3)sc2C)cc1,> 64 µM (inactive)
7,Fc1ccc(-c2csc(-c3ccccn3)n2)cc1,42 µM (inactive)
8,Fc1ccc(-c2csc(-c3cccnc3)n2)cc1,35.6 µM (inactive)
9,CCCc1cc(-c2nc(-c3ccc(NS(C)(=O)=O)cc3)cs2)ccn1,> 64 µM (inactive)
10,Clc1cccc(-c2csc(-c3ccncc3)n2)c1,16 µM
11,Clc1ccc(-c2csc(-c3cccnc3)n2)cc1,11.1 µM and 29.4 µM (inactive)
12,c1cc(-c2nc(-c3nccs3)cs2)ccn1,> 64 µM (inactive)
13,c1ccc(-c2csc(C3CCNCC3)n2)cc1,> 64 µM (inactive)
14,c1ccc(-c2nc(-c3cccnc3)cs2)cc1,> 64 µM (inactive)
15,Fc1ccc(-c2csc(-c3ccccc3)n2)cc1,28.4 µM (inactive)
16,Cc1sc(C2CCNCC2)nc1-c1ccccc1,> 64 µM (inactive)
17,COc1cccc(-c2csc(-c3ccncc3)n2)c1,55.7 µM (inactive)
18,COC(=O)c1ccc(-c2csc(-c3ccncc3)n2)cc1,> 64 µM (inactive)
19,Cc1sc(-c2ccncc2)nc1-c1ccc(F)cc1,> 64 µM (inactive)
20,CCCc1cc(-c2nc(-c3ccc(C)cc3)cs2)ccn1,> 64 µM (inactive)
21,Fc1ccc(-c2csc(-c3ccncc3)n2)cc1,53.6 µM (inactive)
22,Cc1ccc(-c2csc(C3CCNCC3)n2)cc1,> 64 µM (inactive)
23,Clc1ccc(-c2csc(-c3ccccc3)n2)cc1,> 64 µM (inactive)
24,Clc1ccccc1-c1csc(-c2ccncc2)n1,33.2 µM (inactive)
